Test results from patent US20170049676A1, “TOPICAL COMPOSITION” (Conopco, Inc., d/b/a UNILEVER, priority 2014, published 2017).
Where two headings read alike, the source gives them in different places. Each block holds one compound with its values, some of them ahead of it.

Legend:
[1] = system: heme oxygenase 1 (HO-1); assay: Heme oxygenase 1 (HO-1) ELISA on lysates of adult fibroblasts treated with isothiocyanates (Example 2); type: cell-based; details: primary human adult dermal fibroblast cells; for HO-1 (pg HO-1 per μg protein): 24 hours, vehicle control 179 ± 28; for production of HO-1 (in words): either at 1 or 2 μM
Procedure: Primary human adult dermal fibroblast cells were routinely cultured and passaged in Dulbecco's Modified Eagle Medium (DMEM) supplemented with 10% foetal bovine serum (FBS), known as complete medium. Cells were plated out in 12-well tissue culture plates at a seeding density of 20,000 cells per well in 1 ml of low serum medium (DMEM supplemented with 1% FBS) and incubated at 37° C. in 5% CO2 for 96-120 hours before addition of the test samples.
The isothiocynates (all from Sigma-Aldrich Company) sulforaphane, allyl isothiocyanate (AITC), alpha-naphthyl isothiocyanate (NITC), phenethyl isothiocyanate (PEITC) and benzyl isothiocyanate (BITC) were prepared in dimethyl sulphoxide (DMSO) and diluted in DMEM supplemented with 1% FBS to a final concentration of 1 uM and 2 uM. Dermal fibroblasts were treated with 1 ml/well of the test samples for a period of 24 hours. A solvent vehicle was included in each experimental plate.
After 24 hours the cell monolayer was washed with 1 ml of Dulbecco's Phosphate Buffered Saline (DPBS) per well and lysed with 400 μl of RIPA cell lysis buffer per well. The RIPA cell lysis buffer consisted of 150 mM NaCl, 1% v/v Nonidet-P40 (Igepal CA603 from Fluke 56741), 0.1% w/v sodium dodecyl sulphate (SDS) and 0.1% w/v sodium deoxycholate in 50 mM Tris-HCL buffer at pH 7.6. Protease inhibitor tablets were added to the lysis buffer immediately prior to use, at the manufacturer's recommended level. The plates received one freeze thaw cycle to ensure complete cell lysis. The lysates were subsequently clarified by scraping the samples off the plates with a pipette tip, centrifuging at 13,000 rpm for 10 minutes and transferring the supernatant into a 96 well microtitre plate. The clarified lysates were stored at −20° C. until needed.
The heme oxygenase 1 (HO-1) protein concentration of each cell lysate was assayed using the Human HO-1 ELISA Kit from Assay Designs (ADI-EKS-800, Enzo Life Sciences, UK) according to the manufacturer's instructions. Briefly, […] were diluted 1 in 10 in sample diluent, and 100 μl transferred to the pre-coated anti-HO-1 immunoassay plate. A 7-point recombinant HO-1 standard curve, ranging from 25 to 0.39 ng/ml, was also prepared in sample diluent. The immunoassay plate was incubated at room temperature for 30 minutes, washed six times with Wash Buffer, and incubated for a further 60 minutes at room temperature with 100 μl/well of anti-HO-1 antibody solution. The plate was washed as above and incubated for 30 minutes at room temperature with 100 μl/well of horseradish peroxidase (HRP)-conjugate solution. Again the plate was washed as above and 100 μl/well of 3,3′,5,5′-tetramethylbenzidine (TMB)-substrate added to each well for 15 minutes at room temperature in the dark. Following the addition of 100 μl/l well of stop solution, the absorbance was read at 450 nm on a microplate reader (Dynex MRX) and the unknown lysate levels of HO-1 were extrapolated from the standard curve. […]

[2] = system: heme oxygenase 1 (HO-1); assay: Heme oxygenase 1 (HO-1) ELISA on lysates of fibroblasts treated 24 hours, normalised to total protein (Example 1); type: cell-based, human; details: 8.4 mM controls
Procedure: Primary human neonatal dermal fibroblast cells were cultured and passaged in Dulbecco's Modified Eagle Medium (DMEM) supplemented with 10% foetal bovine serum (FBS), known as complete medium. Cells were routinely plated out in 24-well tissue culture plates at a seeding density of 40,000 cells per well in 1 ml complete medium, and incubated at 37° C. in 5% CO2 for 48 hours before addition of the test solutions.
After removal and storage of the tissue culture supernatant, the cell monolayer was washed with 1 ml of Dulbecco's Phosphate Buffered Saline (DPBS) per well and lysed with 200 μl cell lysis buffer per well. The cell lysis buffer consisted of 0.5% w/w Triton™ X100 (octyl phenol ethoxylate) and 1 mM ethylenediaminetetraacetic acid (EDTA) in phosphate buffer solution (PBS) at pH 7.2. Protease inhibitor tablets were added to the lysis buffer immediately prior to use, at the manufacturer's recommended level. The plates received one freeze thaw cycle to ensure complete cell lysis. The lysates were subsequently clarified by scraping the samples off the plates with a pipette tip and passing them through an Acrowell™ filter plate (Pall Corporation) using an Acroprep™ vacuum manifold (Pall Corporation) into a 96 well microwell plate. The clarified lysates were stored at −20° C. until needed.
A set of eight standard solutions ranging from 0 to 800 μg/ml protein was prepared from the supplied 2 mg/ml bovine serum albumin (BSA) stock solution. 10 μl of standard or cell lysate was added to duplicate wells of a flat-bottomed, 96-well microtitre plate. The reagent solution was prepared according to the kit instructions from 50 parts reagent A and 1 part reagent B. 200 μl of the final reagent was added to each well of the microtitre plate. The plate was mixed, covered and incubated at 37° C. for 30 minutes and absorbance read at 540 nm. A protein standard curve was constructed and used to determine the protein concentration of each individual cell lysate.
The heme oxygenase 1 (HO-1) protein concentration of each cell lysate was assayed using the Human Total HO-1/HMOX1 DuoSet IC assay (R&D Systems Europe Ltd) according to the manufacturer's instructions. This DuoSet IC ELISA ([…]) contains the basic components required for the development of sandwich ELISAs to measure HO-1/HMOX1 (heme oxygenase (decycling) 1 which is a human gene that encodes for the enzyme heme oxygenase 1)/HSP32 (heat shock protein 32 (Hsp32), also known as heme oxygenase 1 (HO-1)) in cell lysates. An immobilized capture antibody specific for HO-1/HMOX1/HSP32 binds both phosphorylated and unphosphorylated HO-1/HMOX1/HSP32. […]

[3] = system: primary human neonatal dermal fibroblast cells; assay: Cytotoxicity assay, ApoTox-Glo Triplex Assay (dead-cell protease, bis-AAF-R110)
[4] = system: rat basophilic leukemia (RBL-2H3) cells; details: cited from earlier work
[5] = system: myrosinase from Raphanus sativus var. longipinnatus (daikon); details: cited from earlier work; for reaction velocity, % of that with 500 μM ascorbic acid: 150 μM sinigrin; for effect on enzymic activity (in words): sinigrin as substrate, pH 6.0
[6] = system: primary human neonatal dermal fibroblast cells
[7] = system: enzymes from several other Brassica species; details: cited from earlier work
[8] = system: enzyme from Salix alba (white willow); details: cited from earlier work
[9] = system: myrosinase in partially purified extracts of six crucifers; details: cited from earlier work

SMILES: S=C=Nc1cccc2ccccc12 [Alpha-naphthyl isothiocyanate (NITC), Alpha-naphthyl isothiocyanate]
- HO-1 (pg HO-1 per μg protein) ([1]; 1 μM): 195 ± 25 pg HO-1 per μg protein
- HO-1 (pg HO-1 per μg protein) ([1]; 2 μM): 191 ± 31 pg HO-1 per μg protein
- production of HO-1 (in words) [1]: increase the production of HO-1

SMILES: C=CCC(=NOS(=O)(=O)O)S[C@@H]1O[C@H](CO)[C@@H](O)[C@H](O)[C@H]1O [Sinigrin control, sinigrin (2-propenyl or allyl glucosinolate)]
- Normalised HO-1 (vehicle = 100) ([2]; dilution 1/50): 168.32 ± 73.93
- Normalised HO-1 (vehicle = 100) ([2]; dilution 1/100): 49.08 ± 12.98
- Cytotoxicity (RFU × 1000) ([3]; 8.4 mM controls in complete medium, dilution 1/50, second series (untreated cells 18.63)): 80.94 ± 39.75 RFU × 1000
- cytotoxicity to the fibroblast cells (in words) ([3]; extract without heat treatment, single components on their own at comparable levels): Neither myrosinase, nor the glucosinolate sinigrin, nor allyl isothiocyanate induce cytotoxicity on their own

SMILES: O=c1c(O)c(-c2ccc(O)c(O)c2)oc2cc(O)cc(O)c12 [Quercetin]
- Nrf2 translocation (in words) ([4]; RBL-2H3 cells): translocate Nrf2 from cytoplasm into nucleus
- mast cell degranulation and release of histamine (in words) [4]: inhibit mast cell degranulation and subsequent release of histamine

SMILES: C=CCN=C=S [Allyl isocyanate control, Allyl isothiocyanate]
- Normalised HO-1 (vehicle = 100) ([2]; dilution 1/50): 335.46 ± 54.80
- Normalised HO-1 (vehicle = 100) ([2]; dilution 1/100): 383.74 ± 30.02
- HO-1 (pg HO-1 per μg protein) ([1]; 1 μM): 207 ± 13 pg HO-1 per μg protein
- HO-1 (pg HO-1 per μg protein) ([1]; 2 μM): 243 ± 26 pg HO-1 per μg protein
- production of HO-1 (in words) [1]: increase the production of HO-1
- inhibition of activity (in words) ([5]; concentrations as high as 1 mM): did not significantly inhibit activity
- cytotoxicity to the fibroblast cells (in words) [6]: Neither myrosinase, nor the glucosinolate sinigrin, nor allyl isothiocyanate induce cytotoxicity on their own
- Cytotoxicity (RFU × 1000) ([6]; human, 24 h, 0.168 mM): 66.71 ± 4.63 RFU × 1000

SMILES: S=C=NCCc1ccccc1 [Phenethyl isothiocyanate (PEITC), Phenethyl isothiocyanate]
- HO-1 (pg HO-1 per μg protein) ([1]; 1 μM): 429 ± 49 pg HO-1 per μg protein
- HO-1 (pg HO-1 per μg protein) ([1]; 2 μM): 668 ± 101 pg HO-1 per μg protein
- production of HO-1 (in words) [1]: increase the production of HO-1

SMILES: O=C1O[C@H]([C@@H](O)CO)C(O)=C1O [ascorbic acid]
- activation by ascorbate [7]: 8-12 fold
- activation by ascorbate [8]: 2-3 fold
- reaction velocity, % of that with 500 μM ascorbic acid ([5]; 0.75 mM ascorbic acid): 90%
- reaction velocity, % of that with 500 μM ascorbic acid ([5]; 1.0 mM ascorbic acid): 73%
- effect on enzymic activity (in words) [5]: enzymic activity was enhanced greatly
- ascorbate concentrations for maximal activation of myrosinase [9]: 0.7 to 5.0 mM

- production of HO-1 (in words) [1]: increase the production of HO-1
SMILES: C[S+]([O-])CCCCN=C=S (stereo not drawn) [Sulforaphane]
- HO-1 (pg HO-1 per μg protein) ([1]; 1 μM): 280 ± 15 pg HO-1 per μg protein
- HO-1 (pg HO-1 per μg protein) ([1]; 2 μM): 309 ± 45 pg HO-1 per μg protein

SMILES: S=C=NCc1ccccc1 [Benzyl isothiocyanate (BITC), Benzyl isothiocyanate]
- HO-1 (pg HO-1 per μg protein) ([1]; 1 μM): 381 ± 50 pg HO-1 per μg protein
- HO-1 (pg HO-1 per μg protein) ([1]; 2 μM): 730 ± 170 pg HO-1 per μg protein
- production of HO-1 (in words) [1]: increase the production of HO-1

SMILES: O=S(=O)(O)O [sulphate]
- effect on enzymic activity (in words) [5]: inhibited activity competitively
